Measured values from patent publication US9951065B2 (Gilead Sciences, Inc., priority 2015, dated 2018).

What follows are compounds tested against T1, IDO1 (Homo sapiens, UniProt P14902) (assay: Cell-based (HeLa) assay for measurement of IDO1 inhibition (kynurenine levels in supernatant after IFNγ induction)). Conditions: HeLa cells, IFNγ-induced IDO1, kynurenine in supernatant after 48 hour incubation; geometric mean of a minimum of four determinations.
T1 construct: HeLa cells were treated with a test compound in the presence of IFNγ, which induces IDO1 expression; host or cells: H1-HeLa cells, IDO1 induced with IFNγ
T1 sequence (P14902 whole entry): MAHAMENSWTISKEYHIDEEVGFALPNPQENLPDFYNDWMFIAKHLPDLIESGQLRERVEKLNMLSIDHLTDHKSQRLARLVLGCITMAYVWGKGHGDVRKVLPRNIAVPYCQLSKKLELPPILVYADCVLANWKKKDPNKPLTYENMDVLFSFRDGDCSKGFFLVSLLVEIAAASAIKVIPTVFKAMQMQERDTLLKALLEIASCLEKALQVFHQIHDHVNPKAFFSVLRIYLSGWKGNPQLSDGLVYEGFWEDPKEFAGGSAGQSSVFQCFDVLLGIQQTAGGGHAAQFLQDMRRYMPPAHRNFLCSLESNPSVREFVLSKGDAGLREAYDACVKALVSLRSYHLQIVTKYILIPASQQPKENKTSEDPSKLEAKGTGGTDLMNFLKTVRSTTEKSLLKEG
Method in brief: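 IDO1 activity is read as kynurenine released into the medium, detected with Ehrlich's reagent (p-dimethylaminobenzaldehyde) at 480 nm after TCA treatment. HeLa cells were exposed 48 h to compounds in 0.5% DMSO alongside IFNγ induction. Values normalized to no-IFNγ and IFNγ controls; four-parameter EC50 given as geometric mean of ≥4 determinations.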

| SMILES | EC50 [nM] |
| --- | --- |
| O/N=C(\Nc1ccc(Cl)cc1)c1ccnc2nc[nH]c12 [Example 87, N-(4-Chlorophenyl)-N′-hydroxy-1H-imidazo[4,5-b]pyridine-7-carboximidamide] | 846 |
| O/N=C(\Nc1ccc(F)c(Cl)c1)c1ccnc2nc(C3CCCN3)[nH]c12 (stereo not shown) [Example 152, N-(3-Chloro-4-fluorophenyl)-N′-hydroxy-2-(pyrrolidin-2-yl)-1H-imidazo[4,5-b]pyridine-7-carboximidamide] | 4040 |
| CN(C)CCc1nc2c(/C(=N/O)Nc3ccc(F)c(Cl)c3)cc(F)c(F)c2[nH]1 [Example 53, N-(3-Chloro-4-fluorophenyl)-2-(2-(dimethylamino)ethyl)-6,7-difluoro-N′-hydroxy-1H-benzo[d]imidazole-4-carboximidamide] | 916 |
| O/N=C(\Nc1ccc(F)c(C(F)(F)F)c1)c1ccnc2[nH]c(CCl)nc12 [Example 170, 2-(Chloromethyl)-N-(4-fluoro-3-(trifluoromethyl)phenyl)-N′-hydroxy-3H-imidazo[4,5-b]pyridine-7-carboximidamide] | 1940 |
| O/N=C(\Nc1ccc(Cl)c(Br)c1)c1ccnc2nc[nH]c12 [Example 85, N-(3-Bromo-4-chlorophenyl)-N′-hydroxy-1H-imidazo[4,5-b]pyridine-7-carboximidamide] | 462 |
| CN(C)CCc1nc2c(/C(=N/O)Nc3cccc(Cl)c3)cc(F)c(F)c2[nH]1 [Example 56, N-(3-Chlorophenyl)-2-(2-(dimethylamino)ethyl)-6,7-difluoro-N′-hydroxy-1H-benzo[d]imidazole-4-carboximidamide] | 562 |
| COCCCNCc1nc2c(F)c(F)cc(/C(=N/O)Nc3cccc(Cl)c3)c2[nH]1 [Example 24, N-(3-Chlorophenyl)-4,5-difluoro-N′-hydroxy-2-(((3-methoxypropyl)amino)methyl)-1H-benzo[d]imidazole-7-carboximidamide] | 1920 |
| O/N=C(\Nc1ccc(F)c(Cl)c1)c1ccnc2nc(NCC3CC3)[nH]c12 [Example 161, N-(3-Chloro-4-fluorophenyl)-2-((cyclopropylmethyl)amino)-N′-hydroxy-1H-imidazo[4,5-b]pyridine-7-carboximidamide] | 655 |
| COc1cccc(N/C(=N\O)c2ccnc3nc[nH]c23)c1 [Example 92, N′-Hydroxy-N-(3-methoxyphenyl)-1H-imidazo[4,5-b]pyridine-7-carboximidamide] | 3890 |
| Nc1nc2c(F)ccc(/C(=N/O)Nc3ccc(F)c(Br)c3)c2[nH]1 [Example 19, 2-Amino-N-(3-bromo-4-fluorophenyl)-4-fluoro-N′-hydroxy-1H-benzo[d]imidazole-7-carboximidamide] | 456 |
| O/N=C(\Nc1cccc(Cl)c1)c1ccnc2nc[nH]c12 [Example 82, N-(3-Chlorophenyl)-N′-hydroxy-1H-imidazo[4,5-b]pyridine-7-carboximidamide] | 160 |

The remaining lines, values ahead:

| EC50 [nM] | SMILES |
| --- | --- |
| 5280 | O/N=C(\Nc1ccc(F)c(Cl)c1)c1ccnc2nc(NCCN3CC[C@H](O)C3)[nH]c12 [Example 279, (S)—N-(3-chloro-4-fluorophenyl)-N′-hydroxy-2-((2-(3-hydroxypyrrolidin-1-yl)ethyl)amino)-1H-imidazo[4,5-b]pyridine-7-carboximidamide] |
| > 10000 | NC(=O)CCNc1nc2c(F)c(F)cc(/C(=N/O)Nc3ccc(F)c(Cl)c3)c2[nH]1 [Example 229] |
| > 10000 | CS(=O)(=O)NCCc1nc2c(F)c(F)cc(/C(=N/O)Nc3ccc(F)c(Cl)c3)c2[nH]1 [Example 210, N-(3-chloro-4-fluorophenyl)-4,5-difluoro-N′-hydroxy-2-(2-(methylsulfonamido)ethyl)-1H-benzo[d]imidazole-7-carboximidamide] |
| 9950 | NC(=O)CNc1nc2c(F)c(F)cc(/C(=N/O)Nc3ccc(F)c(Cl)c3)c2[nH]1 [Example 294, 2-((7-(N-(3-chloro-4-fluorophenyl)-N′-hydroxycarbamimidoyl)-4,5-difluoro-1H-benzo[d]imidazol-2-yl)amino)acetamide] |
| 2090 | CN1CCCCC1CNc1nc2nccc(/C(=N/O)Nc3ccc(F)c(Cl)c3)c2[nH]1 (stereo not shown) [Example 202, N-(3-Chloro-4-fluorophenyl)-N′-hydroxy-2-[(1-methylpiperidin-2-yl)methylamino]-1H-imidazo[4,5-b]pyridine-7-carboximidamide] |
| 477 | O/N=C(\Nc1cccc(Br)c1)c1ccnc2nc(CCN3CCCCC3)[nH]c12 [Example 272, N-(3-bromophenyl)-N′-hydroxy-2-(2-(piperidin-1-yl)ethyl)-1H-imidazo[4,5-b]pyridine-7-carboximidamide] |

Same assay, conditions: HeLa cells, IFNγ-induced IDO1, kynurenine in supernatant, 48 hour incubation; geometric mean of a minimum of four determinations

| EC50 [nM] | SMILES |
| --- | --- |
| 376 | CC(C)N1CCCC(Nc2nc3c(F)c(F)cc(C(=NO)Nc4ccc(F)c(Cl)c4)c3[nH]2)C1 (stereo not shown) [Example 455, N-(3-chloro-4-fluorophenyl)-4,5-difluoro-N′-hydroxy-2-((1-isopropylpiperidin-3-yl)amino)-1H-benzo[d]imidazole-7-carboximidamide] |
| 581 | CN(CCc1nc2nccc(/C(=N/O)Nc3ccc(F)c(Cl)c3)c2[nH]1)CCC1CCOCC1 [Example 401, N-(3-chloro-4-fluorophenyl)-N′-hydroxy-2-(2-(methyl(2-(tetrahydro-2H-pyran-4-yl)ethyl)amino)ethyl)-1H-imidazo[4,5-b]pyridine-7-carboximidamide] |
| 1300 | CC(CCNc1nc2c(F)c(F)cc(/C(=N/O)Nc3ccc(F)c(Cl)c3)c2[nH]1)N(C)C (stereo not shown) [Example 353, N-(3-chloro-4-fluorophenyl)-2-((3-(dimethylamino)butyl)amino)-4,5-difluoro-N′-hydroxy-1H-benzo[d]imidazole-7-carboximidamide] |
| 274 | COC1CN(CCNc2nc3c(F)c(F)cc(/C(=N/O)Nc4ccc(F)c(Cl)c4)c3[nH]2)C1 [Example 456, N-(3-chloro-4-fluorophenyl)-4,5-difluoro-N′-hydroxy-2-((2-(3-methoxyazetidin-1-yl)ethyl)amino)-1H-benzo[d]imidazole-7-carboximidamide] |
| 1990 | CN1Cc2ccccc2C(Nc2nc3c(F)c(F)cc(/C(=N/O)Nc4ccc(F)c(Cl)c4)c3[nH]2)C1 (stereo not shown) [Example 475, N-(3-chloro-4-fluorophenyl)-4,5-difluoro-N′-hydroxy-2-((2-methyl-1,2,3,4-tetrahydroisoquinolin-4-yl)amino)-1H-benzo[d]imidazole-7-carboximidamide] |
| 1120 | CN(C)CC(O)CNc1nc2c(F)c(F)cc(/C(=N/O)Nc3ccc(F)c(Cl)c3)c2[nH]1 (stereo not shown) [Example 448, N-(3-chloro-4-fluorophenyl)-2-((3-(dimethylamino)-2-hydroxypropyl)amino)-4,5-difluoro-N′-hydroxy-1H-benzo[d]imidazole-7-carboximidamide] |
| > 10000 | O/N=C(\Nc1ccc(F)c(Cl)c1)c1ccnc2nc(CC3CCCCN3)[nH]c12 (stereo not shown) [Example 325, N-(3-chloro-4-fluorophenyl)-N′-hydroxy-2-(piperidin-2-ylmethyl)-1H-imidazo[4,5-b]pyridine-7-carboximidamide] |
| 271 | CN1CC[C@@H](Nc2nc3c(F)c(F)cc(/C(=N/O)Nc4ccc(F)c(Cl)c4)c3[nH]2)C1 [Example 457, (R)—N-(3-chloro-4-fluorophenyl)-4,5-difluoro-N′-hydroxy-2-((1-methylpyrrolidin-3-yl)amino)-1H-benzo[d]imidazole-7-carboximidamide] |
